Measured values taken from ChEMBL document CHEMBL5303573, “Mapping human microbiome drug metabolism by gut bacteria and their genes” (Nature, 2019).

Tests used:
[1] = bacteroides thetaiotaomicron, 12 h, 2 µM
Description: The drug is tested on Bacteroides thetaiotaomicron strain: 7330 for biotransformation. The drug concentrations were measured before and after a 12-h incubation by liquid-chromatography-coupled mass spectrometry (LC–MS)

[2] = The drug is tested on Escherichia coli strain: BW25113 for biotransformation. The drug concentrations were measured before and after a 12-h incubation by liquid-chromatography-coupled mass spectrometry (LC–MS); settings: 2 µM
[3] = The drug is tested on Providencia stuartii strain: ATCC25827 for biotransformation. The drug concentrations were measured before and after a 12-h incubation by liquid-chromatography-coupled mass spectrometry (LC–MS); settings: 2 µM
[4] = segatella copri, 12 h, 2 µM
Description: The drug is tested on Prevotella copri strain: DSM18205 for biotransformation. The drug concentrations were measured before and after a 12-h incubation by liquid-chromatography-coupled mass spectrometry (LC–MS)

[5] = The drug is tested on Coprococcus comes strain: ATCC27758 for biotransformation. The drug concentrations were measured before and after a 12-h incubation by liquid-chromatography-coupled mass spectrometry (LC–MS); assay type: ADME; parameters: dose 2 uM, timepoint 0 vs 12 hours; settings: 2 µM
[6] = The drug is tested on Bacteroides dorei strain: DSM17855 for biotransformation. The drug concentrations were measured before and after a 12-h incubation by liquid-chromatography-coupled mass spectrometry (LC–MS); settings: phocaeicola dorei, 2 µM
[7] = bacteroides intestinalis, 12 h, 2 µM
Description: The drug is tested on Bacteroides intestinalis strain: DSM17393 for biotransformation. The drug concentrations were measured before and after a 12-h incubation by liquid-chromatography-coupled mass spectrometry (LC–MS)

[8] = The drug is tested on Clostridium sp. strain: fecal isolate for biotransformation. The drug concentrations were measured before and after a 12-h incubation by liquid-chromatography-coupled mass spectrometry (LC–MS); settings: 2 µM
[9] = The drug is tested on Clostridium asparagiforme strain: DSM15981 for biotransformation. The drug concentrations were measured before and after a 12-h incubation by liquid-chromatography-coupled mass spectrometry (LC–MS); assay type: ADME; parameters: dose 2 uM, timepoint 0 vs 12 hours; settings: enterocloster asparagiformis, 2 µM
[10] = The drug is tested on Bifidobacterium longum subsp. Infantis strain: CCUG52486 for biotransformation. The drug concentrations were measured before and after a 12-h incubation by liquid-chromatography-coupled mass spectrometry (LC–MS); settings: 2 µM
[11] = bacteroides eggerthii, 12 h, 2 µM
Description: The drug is tested on Bacteroides eggerthii strain: DSM20697 for biotransformation. The drug concentrations were measured before and after a 12-h incubation by liquid-chromatography-coupled mass spectrometry (LC–MS)

[12] = The drug is tested on Collinsella aerofaciens strain: ATCC25986 for biotransformation. The drug concentrations were measured before and after a 12-h incubation by liquid-chromatography-coupled mass spectrometry (LC–MS); settings: 2 µM
[13] = roseburia intestinalis, 12 h, 2 µM
Description: The drug is tested on Roseburia intestinalis strain: L1-82 for biotransformation. The drug concentrations were measured before and after a 12-h incubation by liquid-chromatography-coupled mass spectrometry (LC–MS)

[14] = The drug is tested on Clostridium sporogenes strain: ATCC15579 for biotransformation. The drug concentrations were measured before and after a 12-h incubation by liquid-chromatography-coupled mass spectrometry (LC–MS); settings: 2 µM
[15] = The drug is tested on Bacteroides fragilis strain: ATCC43859 for biotransformation. The drug concentrations were measured before and after a 12-h incubation by liquid-chromatography-coupled mass spectrometry (LC–MS); settings: 2 µM
[16] = The drug is tested on Collinsella intestinalis strain: DSM13280 for biotransformation. The drug concentrations were measured before and after a 12-h incubation by liquid-chromatography-coupled mass spectrometry (LC–MS); settings: 2 µM
[17] = The drug is tested on Eubacterium rectale strain: ATCC33656 for biotransformation. The drug concentrations were measured before and after a 12-h incubation by liquid-chromatography-coupled mass spectrometry (LC–MS); settings: agathobacter rectalis, 2 µM
[18] = The drug is tested on Bacteroides pectinophilus strain: ATCC43243 for biotransformation. The drug concentrations were measured before and after a 12-h incubation by liquid-chromatography-coupled mass spectrometry (LC–MS); settings: 2 µM
[19] = The drug is tested on Bifidobacterium ruminantium strain: fecal isolate for biotransformation. The drug concentrations were measured before and after a 12-h incubation by liquid-chromatography-coupled mass spectrometry (LC–MS); settings: 2 µM
[20] = The drug is tested on Clostridium ramosum strain: DSM1402 for biotransformation. The drug concentrations were measured before and after a 12-h incubation by liquid-chromatography-coupled mass spectrometry (LC–MS); settings: thomasclavelia ramosa, 2 µM

Compound | Bacterial Biotransformation [3] | Bacterial Biotransformation [4] | Bacterial Biotransformation [5] | Bacterial Biotransformation [10] | Bacterial Biotransformation [12] | Bacterial Biotransformation [14] | Bacterial Biotransformation [16] | Bacterial Biotransformation [18] | Bacterial Biotransformation [19] | Bacterial Biotransformation [20] | Bacterial Biotransformation [1] | Bacterial Biotransformation [2] | Bacterial Biotransformation [6] | Bacterial Biotransformation [7] | Bacterial Biotransformation [8] | Bacterial Biotransformation [9] | Bacterial Biotransformation [11] | Bacterial Biotransformation [13] | Bacterial Biotransformation [15] | Bacterial Biotransformation [17]
CC(=O)CCCCn1c(=O)c2c(ncn2C)n(C)c1=O [PENTOXIFYLLINE] | Compound NOT metabolized | Compound NOT metabolized | Compound NOT metabolized | Compound NOT metabolized | Compound NOT metabolized | Compound NOT metabolized | Compound NOT metabolized |  |  |  | Compound NOT metabolized | Compound NOT metabolized | Compound NOT metabolized | Compound NOT metabolized | Compound NOT metabolized | Compound NOT metabolized | Compound NOT metabolized | Compound NOT metabolized | Compound NOT metabolized | Compound NOT metabolized
CN1CCN(C2=Nc3ccccc3Oc3ccc(Cl)cc32)CC1.O=C(O)CCC(=O)O [LOXAPINE SUCCINATE] |  | Compound NOT metabolized | Compound NOT metabolized | Compound NOT metabolized |  | Compound NOT metabolized | Compound NOT metabolized | Compound NOT metabolized |  |  | Compound NOT metabolized | Compound NOT metabolized | Compound NOT metabolized | Compound NOT metabolized | Compound NOT metabolized | Compound NOT metabolized | Compound NOT metabolized | Compound NOT metabolized | Compound NOT metabolized | Compound NOT metabolized
COc1ccc2c3c1O[C@H]1C[C@@H](O)C=C[C@@]31CCN(C)C2 [GALANTAMINE] |  | Compound metabolized | Compound NOT metabolized |  | Compound NOT metabolized | Compound NOT metabolized | Compound NOT metabolized | Compound NOT metabolized | Compound NOT metabolized |  | Compound metabolized | Compound NOT metabolized | Compound NOT metabolized | Compound NOT metabolized | Compound NOT metabolized | Compound NOT metabolized | Compound metabolized | Compound NOT metabolized | Compound metabolized | 
COCCCC/C(=N\OCCN)c1ccc(C(F)(F)F)cc1.O=C(O)/C=C\C(=O)O [FLUVOXAMINE MALEATE] | Compound NOT metabolized |  |  | Compound NOT metabolized | Compound NOT metabolized |  |  | Compound metabolized | Compound metabolized |  | Compound metabolized | Compound NOT metabolized | Compound NOT metabolized | Compound NOT metabolized | Compound metabolized | Compound NOT metabolized | Compound NOT metabolized | Compound NOT metabolized | Compound NOT metabolized | Compound NOT metabolized

Continued, in another order:

Bacterial Biotransformation [3] | Bacterial Biotransformation [4] | Bacterial Biotransformation [5] | Bacterial Biotransformation [10] | Bacterial Biotransformation [12] | Bacterial Biotransformation [14] | Bacterial Biotransformation [16] | Bacterial Biotransformation [18] | Bacterial Biotransformation [19] | Bacterial Biotransformation [20] | Compound | Bacterial Biotransformation [1] | Bacterial Biotransformation [2] | Bacterial Biotransformation [6] | Bacterial Biotransformation [7] | Bacterial Biotransformation [8] | Bacterial Biotransformation [9] | Bacterial Biotransformation [11] | Bacterial Biotransformation [13] | Bacterial Biotransformation [15] | Bacterial Biotransformation [17]
Compound NOT metabolized | Compound NOT metabolized | Compound NOT metabolized | Compound NOT metabolized | Compound NOT metabolized | Compound NOT metabolized | Compound NOT metabolized | Compound NOT metabolized | Compound metabolized |  | O=C(O)CCc1nc(-c2ccccc2)c(-c2ccccc2)o1 [OXAPROZIN] | Compound metabolized |  | Compound metabolized | Compound metabolized | Compound NOT metabolized | Compound metabolized | Compound NOT metabolized |  | Compound metabolized | Compound NOT metabolized
 | Compound metabolized | Compound NOT metabolized | Compound metabolized | Compound metabolized | Compound metabolized | Compound NOT metabolized | Compound NOT metabolized | Compound metabolized |  | CC(=O)OCC(=O)[C@@]1(OC(C)=O)[C@@H](C)C[C@H]2[C@@H]3C[C@H](F)C4=CC(=O)C=C[C@]4(C)[C@@]3(F)[C@@H](O)C[C@@]21C [DIFLORASONE DIACETATE] | Compound metabolized | Compound metabolized | Compound metabolized | Compound metabolized | Compound metabolized | Compound metabolized | Compound metabolized | Compound metabolized | Compound metabolized | Compound NOT metabolized
Compound NOT metabolized | Compound metabolized | Compound NOT metabolized | Compound NOT metabolized | Compound NOT metabolized | Compound NOT metabolized | Compound NOT metabolized | Compound NOT metabolized | Compound metabolized | Compound NOT metabolized | Cc1nc(Nc2ncc(C(=O)Nc3c(C)cccc3Cl)s2)cc(N2CCN(CCO)CC2)n1.O [DASATINIB] | Compound NOT metabolized | Compound NOT metabolized | Compound metabolized | Compound metabolized | Compound metabolized | Compound NOT metabolized | Compound NOT metabolized |  |  | Compound NOT metabolized
Compound NOT metabolized | Compound NOT metabolized | Compound NOT metabolized | Compound NOT metabolized | Compound NOT metabolized | Compound NOT metabolized | Compound NOT metabolized | Compound NOT metabolized |  |  | Cc1ccccc1C(OCCN(C)C)c1ccccc1.O=C(O)CC(O)(CC(=O)O)C(=O)O (configuration not stated) [ORPHENADRINE CITRATE] | Compound NOT metabolized |  | Compound NOT metabolized | Compound NOT metabolized |  | Compound NOT metabolized | Compound NOT metabolized | Compound NOT metabolized | Compound NOT metabolized | 
